Experimental data taken from the NIST ThermoML archive (doi:10.1016/j.tca.2015.01.022).
± gives the expanded uncertainty stated by the source.

Test: Molar enthalpy of transition or fusion
Settings: Crystal; Adiabatic calorimetry

Molar enthalpy of transition or fusion: 15.31 ± 0.05 kJ/mol
SMILES: CCCCCCCC[n+]1ccn(C)c1.F[B-](F)(F)F [1-methyl-3-octylimidazolium tetrafluoroborate]
